One experiment addresses T1, Caspase-1 (Mus musculus) (UniProt P29452).
T1 sequence (whole entry): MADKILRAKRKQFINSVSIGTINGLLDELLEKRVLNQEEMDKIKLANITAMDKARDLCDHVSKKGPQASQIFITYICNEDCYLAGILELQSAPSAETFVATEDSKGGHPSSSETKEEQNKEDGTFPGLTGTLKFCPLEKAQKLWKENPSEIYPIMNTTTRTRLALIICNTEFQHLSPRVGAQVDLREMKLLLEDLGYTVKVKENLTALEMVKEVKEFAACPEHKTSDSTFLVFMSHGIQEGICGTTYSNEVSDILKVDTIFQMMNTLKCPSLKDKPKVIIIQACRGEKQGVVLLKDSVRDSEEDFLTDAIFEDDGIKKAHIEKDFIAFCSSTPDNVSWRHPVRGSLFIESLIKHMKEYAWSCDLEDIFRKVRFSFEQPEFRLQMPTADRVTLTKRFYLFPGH
Nature of the experiment: Inhibitory activity against murine Caspase-1.

In the next experiment the target is T2, Caspase-6 (Homo sapiens) (UniProt P55212).
T2 sequence (whole entry): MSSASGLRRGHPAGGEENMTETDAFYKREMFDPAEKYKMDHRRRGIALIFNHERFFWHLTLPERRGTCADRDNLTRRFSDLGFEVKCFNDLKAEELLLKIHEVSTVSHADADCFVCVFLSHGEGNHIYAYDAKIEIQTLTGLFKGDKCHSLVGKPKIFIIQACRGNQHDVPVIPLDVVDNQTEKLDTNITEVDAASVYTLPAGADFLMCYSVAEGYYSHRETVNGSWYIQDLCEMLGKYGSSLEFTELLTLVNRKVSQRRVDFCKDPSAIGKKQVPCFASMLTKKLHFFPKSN
Nature of the experiment: Inhibitory activity against Caspase-6.

The next experiment has as its system THP-1. Nature of the experiment: Inhibitory concentration against THP-1 cells. It counts as functional, cell-based. To be noted: Homo sapiens.
The target in another experiment is Caspase-8 (Homo sapiens) (UniProt Q14790). Nature of the experiment: Inhibitory activity against Caspase-8.
In a further experiment the test system is Jurkat. The experiment can be described thus: Inhibitory concentration against JFas cells. It counts as functional, cell-based. Particulars: Homo sapiens.
Experiment [1] relates to Rattus norvegicus. The experiment can be described thus: Effective dose required for pancaspase inhibition in a-Fas liver after an i.p. administration. It counts as functional. To be noted: ip.
The next experiment addresses T3, Caspase-3 (Homo sapiens) (UniProt P42574).
T3 sequence (whole entry): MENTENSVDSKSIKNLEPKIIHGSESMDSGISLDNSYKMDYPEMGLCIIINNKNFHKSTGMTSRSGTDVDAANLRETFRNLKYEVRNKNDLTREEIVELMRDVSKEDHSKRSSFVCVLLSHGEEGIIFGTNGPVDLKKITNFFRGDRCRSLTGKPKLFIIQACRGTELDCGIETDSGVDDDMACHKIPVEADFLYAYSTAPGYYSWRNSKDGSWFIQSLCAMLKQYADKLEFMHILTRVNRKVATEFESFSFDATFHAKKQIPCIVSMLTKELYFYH
The experiment can be described thus: Inhibitory activity against Caspase-3.

The subject of the next experiment is Mus musculus. The experiment can be described thus: Effective dose required for pancaspase inhibition in a-Fas liver upon i.p. administration; range = 0.02-0.16. Particulars: ip.
For experiment [2], the system named is Rattus norvegicus. The experiment can be described thus: Effective dose required for pancaspase inhibition in a-Fas liver upon i.p. administration; range = 0.03-0.05. It counts as functional. To be noted: ip.

Caspase-8 (Homo sapiens), sequence (Q14790 217-374 limits assumed): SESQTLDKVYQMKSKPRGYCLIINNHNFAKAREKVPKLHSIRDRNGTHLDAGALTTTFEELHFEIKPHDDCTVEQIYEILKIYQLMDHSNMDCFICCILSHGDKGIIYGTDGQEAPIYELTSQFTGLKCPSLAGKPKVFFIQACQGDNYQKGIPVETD
Caspase-8 (Homo sapiens), sequence (Q14790 385-479 limits assumed): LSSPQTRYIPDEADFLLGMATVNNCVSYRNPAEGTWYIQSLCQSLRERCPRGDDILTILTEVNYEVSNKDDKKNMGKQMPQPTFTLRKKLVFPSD

On to `C[C@H](NC(=O)C(=O)Nc1ccccc1-c1ccccc1)C(=O)N[C@@H](CC(=O)O)C(=O)COP(=O)(c1ccccc1)c1ccccc1`, for which the k3/Ki on Caspase-1 (Mus musculus) worked out at 5e+06 M⁻¹ s⁻¹; at Caspase-6 (Homo sapiens), 22700 M⁻¹ s⁻¹; at Caspase-8 (Homo sapiens) it was 1.57e+06 M⁻¹ s⁻¹; on Caspase-3 (Homo sapiens), 28400 M⁻¹ s⁻¹. For the same compound, the IC50 (as a rule, the concentration needed to halve the response being measured) in the experiment on THP-1 came to 4.12 µM; in the experiment on Jurkat, 3.94 µM. The ED50 (commonly the dose that gives a 50% effect, or the effect in half of the subjects) in the experiment with Rattus norvegicus [1] came out at 0.44 mg/kg.

In the case of `C[C@H](NC(=O)C(=O)Nc1ccccc1Cl)C(=O)N[C@@H](CC(=O)O)C(=O)COc1c(F)c(F)cc(F)c1F`, the k3/Ki at Caspase-1 (Mus musculus) stood at 1.34e+07 M⁻¹ s⁻¹; at Caspase-6 (Homo sapiens), 26000 M⁻¹ s⁻¹; on Caspase-8 (Homo sapiens), 228000 M⁻¹ s⁻¹; at Caspase-3 (Homo sapiens), 219000 M⁻¹ s⁻¹. The IC50 turned out to be 0.54 µM in the experiment with THP-1 and 0.064 µM in the experiment with Jurkat. Besides, the 50% effect level with Mus musculus (ED50) was put at a dose of 0.05 mg/kg.

Consider `C[C@H](NC(=O)C(=O)Nc1ccccc1Cl)C(=O)N[C@@H](CC(=O)O)C(=O)COP(=O)(c1ccccc1)c1ccccc1`, for which the k3/Ki on Caspase-1 (Mus musculus) was 3.96e+06 M⁻¹ s⁻¹; at Caspase-6 (Homo sapiens) it was 37100 M⁻¹ s⁻¹; on Caspase-8 (Homo sapiens) it was 1.41e+06 M⁻¹ s⁻¹; on Caspase-3 (Homo sapiens), 211000 M⁻¹ s⁻¹. This compound also gave an ED50 in the experiment with Rattus norvegicus [2] of 0.04 mg/kg. In addition, the IC50 was 1.04 µM with THP-1 and 0.068 µM in the experiment with Jurkat.

Source of the values: ChEMBL document CHEMBL1141033, “First-in-class pan caspase inhibitor developed for the treatment of liver disease” (J Med Chem, 2005).
